Laboratory results taken from paper PMC7278776, “Multidrug Resistance Modulation Activity of Silybin Derivatives and Their Anti-Inflammatory Potential” (Antioxidants, 2020).
Like-named read-outs stand apart in the source and are kept apart here. Marks after values point to notes of the source that are not given here.

Assays:
human recombinant P-gp = target: T1, human recombinant P-gp (Homo sapiens, UniProt P08183); experiment: biochemical
T1 construct: purchased Promega
Experimental: The procedure and the dilution of the reagents were performed according to the manufacturer’s instructions. Briefly, the human recombinant P-gp-containing membrane (25 µg) was mixed in a 96-well plate with P-gp–Glo™ Assay buffer (control), verapamil (P-gp substrate, positive control, 0.2 mM), Na3VO4 (P-gp inhibitor, negative control, 0.1 mM), ATP standards (to construct the calibration curve, 0.375–3 mM) or samples (2.5 µL, in the concentration range 0.7–20 mM). After that, MgATP (5 mM) was added to total volume of 50 µL to each well to initiate the ATPase reaction. The plate was incubated for 1 h at 37 °C. Thereafter, the reaction was stopped by adding 50 µL of ATP detection reagent and incubated at room temperature for 20 min. The remaining non-metabolized ATP was detected as a luciferase-generated signal.
Using linear regression, the standard ATP curve was designed, and by subsequent interpolation of relative luminescence (RLU) of standards, the amount of ATP consumed in the samples was recalculated according to the manufacturer’s guidelines.

acetylcholinesterase = acetylcholinesterase (Homo sapiens, UniProt P22303); experiment: Acetylcholinesterase activity, Ellman colorimetric method; type: biochemical
Experimental: The activity of acetylcholinesterase was measured by the Ellman colorimetric method. A stock solution of acetylcholinesterase was prepared in PBS (0.057 U/mL), 100× diluted and stored in a freezer (−20 °C). Further, the solution of DTNB (5,5′-dithio-bis-2-nitrobenzoic acid, 50 µM) and ATC ([…], 50 µM) was prepared. […] Afterwards, 10 µL of DNTB and ATC solution was added, and the reaction was launched. After the addition of reagents, the absorbance at 412 nm was recorded for 10 min every minute.

ABCD1 = ABCD1 mRNA expression (real-time PCR); type: cell-based, human; conditions: A2780/DOX
Experimental: (§1) The A2780/DOX cell line was seeded into 5 cm Petri dishes with DMEM medium at 1 × 10^5 cell/mL. After 24 h, the dishes were washed with PBS and new DMEM medium supplemented with doxorubicin (at concentration equal to IC25) and samples (10 µM) were added. After 48 h of treatment, the cells were washed with PBS and harvested using the standard trypsin-EDTA procedure. The harvested cells were centrifuged (3200× g; 10 min, 4 °C). The supernatant was discarded, and the pellets were washed with 1.5 mL of cooled PBS (5400× g; 10 min, 4 °C). The washing step was repeated with 1 mL of PBS and the cells were centrifuged again (10,000× g; 3 min, 4 °C). Afterwards, the pellets were resuspended in 1 mL of Trizol (Invitrogen, Carlsbad, CA, USA) and transferred into pre-cooled RNase-free microfuge tubes. The samples were stored at −80 °C.
(§2) A Quant-iT RiboGreen RNA Assay Kit (Invitrogen) was used to determine the RNA concentration using the Infinite M200 plate reader (Tecan, Männedor, Switzerland). The cDNA was prepared from 0.5 µg of total RNA using a RevertAid First Strand Synthesis cDNA Kit (MBI Fermentas, Vilnius, Lithuania). The amplification of the ubiquitin C gene fragment was used to determine the quality of cDNA.
(§3) The experiment was performed using the ViiA7 Real-Time polymerase chain reaction (PCR) System (Life Technologies, Camarillo, CA, USA) with a 384-well block. Before quantitative real-time PCR, the master mix was prepared by mixing 2 µL of 8 × diluted cDNA, 1.75 µL of RNase free water, 1 µL of 5 × HotFIREPol Probe quantitative PCR Mix Plus (Solis Biodyne, Tartu, Estonia) and 0.25 µL of specific 20 × TaqMan Gene Expression Assay (Life Technologies), giving 5 µL of final reaction volume. Cycling parameters were: initial hold at 50 °C for 2 min and denaturation at 95 °C for 10 min, followed by 45 cycles consisting of denaturation at 95 °C for 15 s and annealing/extension at 60 °C for 1 min. After each extension phase, the fluorescence values were acquired. Duplicate samples were used for measurement and samples with a standard deviation of duplicates > 1.0 cycle threshold (Ct) were re-analyzed. The real time PCR procedure was maintained according to MIQE (Minimum information for publication of quantitative real-time PCR experiments) guidelines. The software REST 2009 (Qiagen, Hilden, Germany) served to compare relative transcript levels of genes in the cell line.

ABCB2 = ABCB2 mRNA expression (real-time PCR); type: cell-based, human; conditions: A2780/DOX, 10 µM combined with doxorubicin at IC25, 48 h
Experimental: as §1, §2, §3

ABCB6 = ABCB6 mRNA expression (real-time PCR); type: cell-based, human; conditions: A2780/DOX
Experimental: as §1, with “After 24 h, the dishes were washed with PBS and new DMEM medium supplemented with doxorubicin (at concentration equal to IC25) and samples (10 µM) were added.” left out
as §2, §3

ABCB9 = ABCB9 mRNA expression (real-time PCR); type: cell-based, human; conditions: A2780/DOX, 10 µM combined with doxorubicin at IC25, 48 h
Experimental: as §1, §2, §3

ABCA2 = ABCA2 mRNA expression (real-time PCR); type: cell-based, human; conditions: A2780/DOX, 10 µM combined with doxorubicin at IC25, 48 h
Experimental: as §1, §2, §3

TNF-α = TNF-α release by LPS-induced macrophages (ELISA); type: cell-based, mouse; conditions: for IC50: Mus musculus
Experimental: To determine the level of inflammatory cytokine TNF-α, macrophages were pre-cultivated with the tested compounds (12.5–50 µM) for 24 h. Thereafter, the plates were washed with PBS and new MEM medium enriched with LPS (1 µg/mL) was added to the wells. After 2 h of incubation, the plates were centrifuged (1000× g; 10 min, 4 °C) and then the medium was removed and frozen to −80 °C. Prior to the detection, the samples were diluted in ELISA diluent in a 1:10 ratio. […]

ABCG4 = ABCG4 mRNA expression (real-time PCR); type: cell-based, human; conditions: for ABCG4 Expression Difference / ABCG4 Treated vs. Untreated: A2780/DOX
Experimental: as §1, with “After 24 h, the dishes were washed with PBS and new DMEM medium supplemented with doxorubicin (at concentration equal to IC25) and samples (10 µM) were added.” left out
as §2, §3

[1] = 10 µM combined with doxorubicin at IC25, 48 h
[2] = 10 µM, 48 h, without doxorubicin
[3] = RAW264.7, read-out: TNF-α, concentration necessary to halve the release (IC50)
[4] = compound 12.5 µM, untreated LPS control 2954 ± 92
[5] = compound 25 µM, untreated LPS control 2954 ± 92
[6] = compound 50 µM, untreated LPS control 2954 ± 92
[7] = RAW264.7, RAW 264.7, 24 h pre-cultivation, then LPS 2 h, read-out: TNF-α, concentration necessary to halve the release (IC50)

T1 sequence (P08183 whole entry): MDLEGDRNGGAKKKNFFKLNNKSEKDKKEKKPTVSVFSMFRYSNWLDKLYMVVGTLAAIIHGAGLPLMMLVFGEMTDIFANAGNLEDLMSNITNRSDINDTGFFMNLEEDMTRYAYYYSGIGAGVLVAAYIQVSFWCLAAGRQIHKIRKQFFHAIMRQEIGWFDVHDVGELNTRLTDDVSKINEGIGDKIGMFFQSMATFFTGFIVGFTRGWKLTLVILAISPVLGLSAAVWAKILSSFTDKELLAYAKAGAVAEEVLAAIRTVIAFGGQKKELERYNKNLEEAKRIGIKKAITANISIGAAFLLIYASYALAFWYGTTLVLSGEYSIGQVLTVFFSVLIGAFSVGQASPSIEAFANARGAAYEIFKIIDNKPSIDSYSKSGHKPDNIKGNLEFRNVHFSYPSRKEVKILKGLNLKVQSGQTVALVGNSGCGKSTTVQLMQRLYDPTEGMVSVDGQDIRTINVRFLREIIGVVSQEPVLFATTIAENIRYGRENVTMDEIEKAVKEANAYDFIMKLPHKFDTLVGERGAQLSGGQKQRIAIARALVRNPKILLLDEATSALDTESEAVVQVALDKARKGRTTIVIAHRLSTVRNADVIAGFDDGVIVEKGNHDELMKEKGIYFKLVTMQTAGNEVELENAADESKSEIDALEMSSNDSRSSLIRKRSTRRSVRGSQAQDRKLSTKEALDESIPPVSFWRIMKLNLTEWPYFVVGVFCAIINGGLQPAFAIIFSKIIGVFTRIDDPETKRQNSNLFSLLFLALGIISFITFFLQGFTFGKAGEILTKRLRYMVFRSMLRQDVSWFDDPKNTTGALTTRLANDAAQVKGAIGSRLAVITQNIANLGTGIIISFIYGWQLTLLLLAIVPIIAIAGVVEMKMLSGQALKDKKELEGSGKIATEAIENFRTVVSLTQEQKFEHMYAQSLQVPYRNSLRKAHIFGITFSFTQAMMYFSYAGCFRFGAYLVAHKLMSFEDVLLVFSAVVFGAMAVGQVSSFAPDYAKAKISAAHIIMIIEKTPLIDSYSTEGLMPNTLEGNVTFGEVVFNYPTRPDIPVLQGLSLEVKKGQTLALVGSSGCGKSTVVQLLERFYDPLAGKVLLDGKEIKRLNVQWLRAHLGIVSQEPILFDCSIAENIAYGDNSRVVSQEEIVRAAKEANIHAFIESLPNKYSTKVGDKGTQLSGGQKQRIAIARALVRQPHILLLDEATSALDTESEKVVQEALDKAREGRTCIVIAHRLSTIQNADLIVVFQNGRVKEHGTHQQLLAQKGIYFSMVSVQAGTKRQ
Sequence of acetylcholinesterase (P22303 32-614, species assumed): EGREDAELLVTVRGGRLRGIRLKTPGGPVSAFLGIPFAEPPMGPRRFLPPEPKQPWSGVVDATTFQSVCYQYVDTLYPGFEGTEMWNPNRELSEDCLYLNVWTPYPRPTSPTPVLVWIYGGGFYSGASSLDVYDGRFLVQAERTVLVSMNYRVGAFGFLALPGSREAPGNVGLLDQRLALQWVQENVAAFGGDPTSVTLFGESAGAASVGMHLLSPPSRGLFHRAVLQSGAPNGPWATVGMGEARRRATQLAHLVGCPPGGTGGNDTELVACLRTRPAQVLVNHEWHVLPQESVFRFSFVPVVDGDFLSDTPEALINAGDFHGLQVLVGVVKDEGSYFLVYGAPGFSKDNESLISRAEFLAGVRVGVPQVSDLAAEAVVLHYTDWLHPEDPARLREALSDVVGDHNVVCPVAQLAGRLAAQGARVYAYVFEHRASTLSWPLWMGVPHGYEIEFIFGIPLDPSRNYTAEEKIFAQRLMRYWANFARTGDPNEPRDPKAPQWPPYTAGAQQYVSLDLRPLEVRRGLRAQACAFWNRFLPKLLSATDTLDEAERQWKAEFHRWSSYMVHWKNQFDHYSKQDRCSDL

Structure (SMILES) | IC50 (human recombinant P-gp) | IC50 (acetylcholinesterase) | ABCD1 Expression Difference (ABCD1; [1]) | ABCD1 Expression Difference (ABCD1; [2]) | ABCB2 Expression Difference (ABCB2) | ABCB6 Expression Difference (ABCB6; [1]) | ABCB9 Expression Difference (ABCB9) | ABCA2 Expression Difference (ABCA2) | IC50 (TNF-α; [3]) | TNF-α (pg/mL) (TNF-α; [4]) | TNF-α (pg/mL) (TNF-α; [5]) | TNF-α (pg/mL) (TNF-α; [6]) | downregulation of ABCG4 expression (ABCG4; [2]) | ABCG4 Expression Difference (ABCG4; [1]) | ABCG4 Expression Difference (ABCG4; [2]) | ABCG4 Treated vs. Untreated (ABCG4; [2]) | IC50 (TNF-α; [7]) | ABCB6 Expression Difference (ABCB6; [2]) | other results
COc1cc([C@H]2Oc3cc(-c4oc5cc(O)cc(O)c5c(=O)c4O)ccc3O[C@@H]2CO)ccc1O [Dehydrosilybin A, 2,3-dehydrosilybin A] | 60.7 ± 10 µM | 6.9 ± 0.6 µM | 1.435 | 1.063 | 5.557 | 1.149 | 1.109 | 1.105 | 20.7 ± 0.4 µM | 2338 ± 63 ^ab pg/mL | 777 ± 28 ^a pg/mL | 0 ± 0 ^a pg/mL | 5% | 1.992 | 0.950 | DOWN | – | – | decrease of release of TNF-α (TNF-α; compound 25 µM, from 2954 pg/mL to 777 pg/mL): ~4 times; TNF-α (TNF-α; compound 25 µM, untreated LPS control 2954 ± 92, listed as dehydrosilybin A): 777 pg/mL; TNF-α (pg/mL) (TNF-α; compound 50 µM, untreated LPS control 2954 ± 92, listed as dehydrosilybin A): under the detection limit of the ELISA assay
COc1cc(C2Oc3cc(-c4oc5cc(O)cc(O)c5c(=O)c4O)ccc3OC2CO)ccc1O (stereo not drawn) [Dehydrosilybin AB, 2,3-dehydrosilybin] | 21.1 ± 0.6 µM | 2.7 ± 0.3 µM | 1.412 | – | 5.145 | 1.262 | 1.149 | 1.046 | 26.7 ± 0.1 µM | 2617 ± 118 ^b pg/mL | 2364 ± 108 ^c pg/mL | 0 ± 0 ^a pg/mL | – | 2.008 | 1.162 | – | – | – | inhibition of acetylcholinesterase activity relative to single isomers (acetylcholinesterase): 2.5 ×; TNF-α (pg/mL) (TNF-α; compound 50 µM, untreated LPS control 2954 ± 92, listed as dehydrosilybin AB): under the detection limit of the ELISA assay
COc1cc([C@@H]2Oc3cc(-c4oc5cc(O)cc(O)c5c(=O)c4O)ccc3O[C@H]2CO)ccc1O [Dehydrosilybin B, 2,3-dehydrosilybin B] | 40.7 ± 3.8 µM | 6.8 ± 0.8 µM | 1.784 | – | 9.286 | 1.343 | 1.218 | 1.078 | 44.2 ± 0.3 µM | 2528 ± 171 ^b pg/mL | 2774 ± 84 ^d pg/mL | 982 ± 25 ^c pg/mL | 26% | 2.860 | 0.736 | DOWN | – | – | –
COc1cc([C@H]2Oc3cc([C@H]4Oc5cc(O)cc(O)c5C(=O)[C@@H]4O)ccc3O[C@@H]2CO)ccc1O [Silybin A, silybin A] | 43.1 ± 6.4 µM | 181 ± 6.1 µM | – | 1.187 | 17.975 | 1.665 | 1.586 | 1.239 | – | 2092 ± 48 ^a pg/mL | 1476 ± 39 ^b pg/mL | 415 ± 4 ^b pg/mL | – | 4.751 | 1.185 | – | 29.9 ± 1.35 µM | – | –
COc1cc(C2Oc3cc([C@H]4Oc5cc(O)cc(O)c5C(=O)[C@@H]4O)ccc3OC2CO)ccc1O (stereo partly drawn) [Silybin AB, silybin] | 32.6 ± 3.6 µM | 22.6 ± 1.4 µM | 2.868 | – | 18.114 | 1.527 | 1.638 | 1.207 | – | 2497 ± 37 ^b pg/mL | 2425 ± 145 ^c pg/mL | 1177 ± 75 ^d pg/mL | – | 5.289 | 1.846 | – | 38.7 µM | 1.838 | –
COc1cc([C@@H]2Oc3cc([C@H]4Oc5cc(O)cc(O)c5C(=O)[C@@H]4O)ccc3O[C@H]2CO)ccc1O [Silybin B, silybin B] | 51.9 ± 2.1 µM | 83.7 ± 6.4 µM | – | 0.348 | 15.698 | – | 1.241 | 0.903 | – | 2441 ± 68 ^b pg/mL | 2375 ± 64 ^c pg/mL | 1792 ± 63 ^e pg/mL | – | 4.110 | 0.366 | DOWN | 53.3 ± 0.7 µM | 0.396 | ABCD1 Treated vs. Untreated (ABCD1; [2]): DOWN; ABCB6 Treated vs. Untreated (ABCB6; [2]): DOWN; ABCA2 Treated vs. Untreated (ABCA2): DOWN
